Legend:
E. coli [1] = experiment: Direct PCR amplification of cell-enriched MIL phase; conditions: 0.5 μL cell-enriched MIL phase directly in PCR mixture
Protocol: Nucleic acid-based methods (e.g., PCR) have become increasingly popular for the detection of pathogens in food, environmental, and clinical samples to increase sample throughput and achieve lower detection limits. […] [Co(hfacac)3^−] MIL under optimized conditions. After extraction, 0.5 μL of the cell-enriched MIL phase was directly transferred into the PCR reagent mixture and heated at 95° C. for 5 min to induce cell lysis and the release of nucleic acids into solution. […] While the direct PCR detection modality provided a rapid assay for the detection of E. coli, the method was only suitable for the detection of relatively large quantities of cells (approximately 10^7 CFUs mL^−1) in aqueous samples likely due to inhibition caused by the MIL.

E. coli [2] = experiment: MIL-based extraction of viable E. coli, selective culture and colony enumeration; conditions: for visible colonies after back-extraction with LB media and culture on selective agar: aqueous solutions of 1.68×10^5 CFUs mL^−1
Protocol: For each cell extraction experiment, 2 mL of sterile LB media with 100 μg mL^−1 carbenicillin was inoculated with 0.5 μL of E. coli glycerol stock and incubated overnight at 37° C. and 225 rpm. The overnight culture was centrifuged at 2820 g for 8 min and the supernatant discarded. The cells were then vortexed for 15 s in 2 mL of deionized water and centrifuged once again at 2820 g for 8 min. Following a total of three washes, the cells were re-suspended in 1 mL of deionized water. The concentration of cells within the suspension was initially determined by measuring the optical density of the sample at 600 nm (OD600), where an OD600 equal to 1.000 represents 8×10^8 E. coli cells mL^−1. The bacterial suspension was diluted to an OD600 value of 0.021 (1.68×10^7 cells mL^−1), after which 10-fold serial dilutions were performed to yield the desired sample concentration. Since the sample concentrations were below the detection limit of the spectrophotometer, the final concentration of each sample (in CFUs mL^−1) was obtained using a plate counting method. Briefly, 15 μL of diluted cell suspension were mixed with 985 μL of LB media and vortexed for 3 min. A […] aliquot of the suspension was spread onto a selective LB agar plate with 100 μg mL^−1 carbenicillin and incubated overnight at 37° C. to obtain visible colonies.
(§1) A general schematic for the MIL-based cell extraction procedure is depicted in FIG. 10. In a 4 mL screw cap glass vial, a controlled volume (e.g., 10 μL) of MIL was added to 2 mL of diluted cell suspension and dispersed into microdroplets by vortex agitation for 15-120 s. Following the dispersive extraction, a 0.9 T magnetic field was applied to collect the cell-enriched MIL extraction phase. After the aqueous phase was decanted, the MIL was subjected to a static wash with 2 mL of deionized water to ensure that residual cell suspension was removed. The extracted E. coli was recovered from the MIL solvent by vortexing the MIL in 1 mL of LB media from 30 to 300 s. Following back-extraction, aliquots of the cell-enriched LB media were cultured on selective agar as well as analyzed by PCR.
To detect viable bacteria recovered from the MIL extraction solvent, a culture-based method selective for E. coli transformants was employed. Following MIL-based extraction, a 100 μL aliquot of the LB back-extraction solution was plated on LB agar containing 100 μg mL^−1 carbenicillin and incubated overnight at 37° C. Visible colonies were counted, tabulated, and compared to the colonies obtained for the sample prior to extraction. The enrichment factor (EF) from the MIL-based extraction was calculated by Equation 1, where CMIL is the concentration of CFUs within the MIL extraction phase and CS represents the concentration of CFUs in the bacterial suspension prior to extraction. EF=CMIL/CS Equation 1
To determine if MILs can extract viable E. coli cells, aqueous solutions of 1.68×10^5 CFUs mL^−1 were extracted with each of the seven MILs using an approach that is similar to one depicted in FIG. 10. […] [Co(hfacac)3^−] MILs with the greatest number of colonies obtained from the Ni(II)-based MIL extractions.

E. coli K12 cells = assay type: cell-based
Protocol: Since culture-based methods are contingent upon the isolation of viable bacteria, the detection of E. coli following MIL-based cell extraction is influenced by the cytotoxicity of MILs. To study the effect of MILs on the growth of E. coli, a 1 mL aliquot of LB media was inoculated with 8.0×10^2±0.5×10^2 CFUs mL^−1 and spiked with approximately 10 μL of a MIL. The mixture was agitated by vortex to simulate the recovery procedure after which a 100 μL aliquot of the suspension was plated on selective agar.

E. coli [3] = experiment: PCR amplification of LB back-extraction solution after MIL-based extraction
Protocol: as §1
Following the recovery of E. coli cells from the MIL extraction phase, an aliquot of the LB back-extraction solution was analyzed by PCR. […] The thermal protocol used for amplification of the MTAP gene was as follows: 5 min initial denaturation at 95° C. followed by 30 cycles of 30 s denaturation at 95° C., 45 s annealing at 54° C., and elongation for 45 s at 72° C.
After thermal cycling, the PCR products were mixed with 10 μL of bromophenol blue tracking dye solution (30% glycerol v/v) and loaded on a 1% agarose gel stained with SYBR Safe DNA gel stain. The PCR amplicon was subjected to electrophoresis at approximately 4 V cm^−1 and subsequently visualized using a transilluminator.
To improve detection limits, cells were recovered from the MIL phase using […] and a 1 μL aliquot of LB media was analyzed by PCR amplification. […] MILs as extraction media.
MIL. […] 1999; 37:2479-82). It should be noted that PCR assays are unable to distinguish between live and dead cells and, therefore, are complementary to microbiological culture for the determination of viable cells in a sample.

[4] = 1 second vial inversion (viscosity comparison); assay type: physicochemical; conditions: 1 second inversion of each MIL
From the text: FIG. 2 compares the viscosities of [P66614^+]2[MnCl4^2−], [P66614^+][Ni(hfacac)3^−], and [P66614^+][Nd(hfacac)4^−] by performing a 1 second inversion of each MIL.

[5] = Magnetic susceptibility, SQUID magnetometer; assay type: physicochemical
Protocol: The μeff values for each exemplary MIL were determined using a Quantum Design MPMS SQUID magnetometer following procedures similar to those previously reported. (Y. Mudryk, P. Manfrinetti, V. Smetana, J. Liu, M. L. Fornasini, A. Provino, V. K. Pecharsky, G. J. Miller and K. A. Gschneidner, J. Alloys Compd, 2013, 557, 252-260).

[6] = Viscosity, cone and plate viscometer; assay type: physicochemical; conditions: 23.7° C.
Protocol: Proton NMR spectra (^1H) were recorded using a Bruker 500 MHz nuclear magnetic resonance spectrometer. Solvent peaks were used as reference values for the reporting of chemical shifts. Elemental analyses were obtained using a Perkin Elmer 2100 Series II CHN/S Analyzer (Waltham, Mass., USA). Mass spectra were obtained using an Agilent 6230 TOF LC/MS (Santa Clara, Calif., USA). Viscosity measurements were obtained using a Wells/Brookfield DV1 cone and plate viscometer using a CPA-51Z cone spindle. Each MIL was dried in a vacuum oven for 48 hours at 50° C. ensuring any water or residual solvents were completely removed from the MILs. Sample volumes of 0.5 mL were used for all MILs at a temperature (23.7° C.).

E. coli [7] = experiment: MIL-based extraction of viable E. coli, selective culture and colony enumeration; conditions: extraction time 30 s to 300 s
[8] = Solubility of MILs in organic solvents (solvent miscibility); assay type: physicochemical; conditions: S with footnotes b-e: organic solvents and water, MIL to solvent ratio
From the text: Owing to their unique solvation capabilities and high thermal stability, ILs have been successfully employed in organic synthesis either as reaction media or catalysts. An evaluation of the hydrophobic MIL solubility in a wide range of organic solvents may provide a fundamental understanding into their solvent properties. This could be instrumental for designing MIL-based reaction media, where the MIL can be selectively separated from the reaction products using an external magnetic field. […] The transition-metal based […] fully miscible in all of the organic solvents except DMSO. […] However, as the polarity value of the solvent drops below 0.117, the transition-metal based MILs show decreased solubilities at a 10% (v/v) MIL to solvent ratio. […] The solubility of these MILs in many different organic solvents adds to their versatility and use in numerous applications.

For CCCCCCCCCCCCCC[P+](CCCCCC)(CCCCCC)CCCCCC.O=C(C=C([O-])C(F)(F)F)C(F)(F)F.O=C(C=C([O-])C(F)(F)F)C(F)(F)F.O=C(C=C([O-])C(F)(F)F)C(F)(F)F.[Co+2] [[P66614^+] [Co(hfacac)3^−]], the “quantity of cells detectable by direct PCR” value (E. coli [1]) was “approximately 10^7 CFUs mL^−1” and the “visible colonies after back-extraction with LB media and culture on selective agar” value (E. coli [2]) was “visible colonies were observed”.
With CCCCCCCCCCCCCC[P+](CCCCCC)(CCCCCC)CCCCCC.O=C(C=C([O-])C(F)(F)F)C(F)(F)F.O=C(C=C([O-])C(F)(F)F)C(F)(F)F.O=C(C=C([O-])C(F)(F)F)C(F)(F)F.[Ni+2] [MIL 3, [P66614^+] tris(hexafluoroacetylaceto)nickelate(II)] the “influence on the growth of E. coli” value (E. coli K12 cells; LB media with 8.0×10^2 CFUs mL^−1, approximately 10 μL of MIL, compared to unexposed standard) was “little to no influence on the growth of E. coli”, the “amplicon after extraction of cell filtrate (cell-free DNA)” value (E. coli [3]) was “no amplicon was detected” and the “E. coli concentration at which bacterial pDNA was detected by PCR” value (E. coli [3]; cell recovery in LB media prior to PCR, 2 mL sample) was 1.68×10^4 CFUs mL^−1. The “movement down the vial” value [4] was “flow easily toward the bottom of the vial”, the μeff ([5]; at lower temperatures) was 2.8 μB and the “change in EF with SOC media as back-extraction solution” value (E. coli [2]; 120 s back-extraction) was “no change in the EF was observed”. The “enrichment factor (EF)” value (E. coli [2]; 120 s back-extraction in LB media, 30 s extraction) was 15.4±0.8, the “enrichment factor (EF)” value (E. coli [2]; MIL volume of 5 μL, cell suspension at 1.68×10^4 CFUs mL^−1) was 44.6±5.2 and the “visible colonies after back-extraction with LB media and culture on selective agar” value (E. coli [2]) was “visible colonies were observed”. The “colonies with deionized water or 10 mM Tris-HCl (pH 8) as back-extraction solution” value (E. coli [2]; culture on selective agar) was “no detectable colonies”, the “lowest E. coli concentration detected in aqueous solution” value (E. coli [2]; optimized conditions, viable cells, culture on selective agar) was 1.68×10^4 CFUs mL^−1 and the viscosity [6] was 927 cP. For the same compound, the “enrichment factor (EF)” value (E. coli [7]) was “approximately 15”.
In the case of CCCCCCCCCCCCCC[P+](CCCCCC)(CCCCCC)CCCCCC [compound 1], the “Cytotoxicity to E. coli” value (E. coli K12 cells) is reported as “Yes”, the Solubility [8] is reported as “S^b,c,e” and the “μeff, effective magnetic moment” value ([5]; from magnetic susceptibility data, SQUID) is reported as 4.3 μB. For the same compound, the “Viable Bacteria” value (E. coli [2]; extraction of E. coli from aqueous samples, 1.68×10^5 CFUs mL^−1) was “No” and the viscosity [6] was 575.8 cP.

Source: US11046991B2, “Rapid preconcentration of viable bacteria using magnetic ionic liquid for PCR amplification and culture-based diagnostics” (priority 2017, dated 2021)
